Reference: patent publication US20260315431A1, “NANOMATERIAL ENCAPSULATED BIOFILM INHIBITORS FOR DENTAL CARIES TREATMENT” (THE UAB RESEARCH FOUNDATION, priority 2023, published 2026)
“Also recorded” adds a separate entry of the source. Marks after values point to notes of the source that are not given here.

How the values were obtained:
[1] = system: rat oral microbiome; experiment: Rat oral microbiome (16S rRNA gene sequencing); type: in vivo, Fischer 344 rats; settings: for overall effect on rat oral microbiome / oral microbiome composition, phylum level: 2-week and 4-week treatment; for oral microbiome composition, phylum level / oral microbiome composition, family level within Firmicutes: 100 μM; for oral microbiome composition, family level within Firmicutes: 4-week treatment; for beta diversity (Bray-Curtis, PERMANOVA): P-value>0.05 vs native community
Description: During this study, rat oral microbiome samples were collected from individual rats (n=5) at the following time points: before the experiment (Native), after inoculation of S. mutans and the start of a caries-promoting diet (Sm+CPD), after two weeks of treatment with the compound (2-week), and at the end of the study (END). The microbiota between the groups at different time points was analyzed for oral bacterial composition and abundance. Oral swabs collected before and after interventions with these compounds were analyzed using the 16s rRNA gene sequencing method. Both ‘within’ (alpha diversity) and ‘between’ (beta diversity) sample diversities were calculated over time for each treatment group using MicrobiomeAnalyst 2.0^[55].
(§1) We used Fischer 344 rats that were bred and maintained in trexler isolators for this experiment. Male and female rat pups were removed from isolators at 20 days of age and randomly assigned into treatment groups of 5 rats/group in cages with filter tops. Rats were then infected with S. mutans UA159 strain by oral swabbing daily for four consecutive days with a fresh overnight culture of S. mutans UA159. Rats were provided with caries promoting Teklad Diet 305 containing […] (Harlan Laboratories, Inc., Indianapolis, IN) and sterile drinking water ad libitum. Oral swabs were taken 5 days post-infection and plated on Todd Hewitt (TH) agar plates and incubated at 37° C. in an environment of 5% CO2 in the air to confirm colonization. Rats were weighed at weaning and then weekly throughout the experiment. One-week post-infection, the molars of the rats were brushed twice daily for 4 weeks with the test compounds using camel-hair brushes. Four treatment groups used in this study were: 1) HA5 (100 μM); 2) […] (100 μM); 3) NaF (250 ppm); and 4) infected untreated rats. Drinking water was withheld for 60 min following each treatment with the compound. Animals were weighed at weaning and at the termination of the experiment. On day 60, the rats were sacrificed using CO2 followed by cervical dislocation or bilateral thoracotomy. The mandibles were surgically removed and cleaned of excess tissue to assess the level of bacteria present and the extent of caries formation. The right mandible from each rat was placed in a tube containing phosphate buffer (3 mL), placed on ice and sonicated (10 sec) to release bacteria from the molars. Each sample was serially diluted, plated on blood (BAP) and mitis-salivarius (MS) agar plates and incubated in an environment of 5% CO2 in air at 37° C. to quantify the level of total bacteria and S. mutans present in the plaque. The right and left mandibles from each rat were then placed in 95% ethanol for 24 h. The mandibles will be cleaned and stained overnight with murexide solution. After drying, the mandibles were sectioned and scored for caries activity using the Keyes method Caries scores were recorded for the buccal, sulcal and proximal molar surfaces individually so that differences among the surfaces can be distinguished. Statistical significance in the mean caries scores, colony-forming units (CFU)/mandible and body weights between groups of rats were determined by one-way analysis of variance (ANOVA) with the Tukey-Kramer multiple comparison test using the InStat program (GraphPad Prism 10.0.2.). When determining the statistical significance between the two groups, an unpaired t-test was applied. Differences between groups were considered significant at a P-value<0.05.
In addition to recording buccal, sulcal and proximal molar surface caries scores and colony-forming units (CFU)/mandible and body weights between groups of rats as described above, plaque samples from rats treated or untreated were collected and DNA was extracted from each sample and used for PCR amplification of ~430 bp amplicons of 16S ribosomal DNA hypervariable regions V3 and V4, Illumina adaptors, and molecular barcodes as described^[66]. […]

[2] = Body weight of animals, HA5 / HA6 study; type: in vivo, Fischer 344 rats; settings: for Weight: 100 μM (NaF 250 ppm); for weight loss: 4-week treatment, 100 μM
Source text: as §1

[3] = system: S. mutans UA159; experiment: Gnotobiotic rat model of dental caries (HA5 / HA6 study, Example 2); type: in vivo, Fischer 344 rats infected with S. mutans UA159; design: key to Buccal Mean Caries Scores (±SEM) E / Buccal Mean Caries Scores (±SEM) Ds / Buccal Mean Caries Scores (±SEM) Dm / Buccal Mean Caries Scores (±SEM) Dx / Sulcal Mean Caries Scores (± SEM) E / Sulcal Mean Caries Scores (± SEM) Ds / Sulcal Mean Caries Scores (± SEM) Dm / Sulcal Mean Caries Scores (± SEM) Dx / Proximal Mean Caries Scores (± SEM) E / Proximal Mean Caries Scores (± SEM) Ds: Keyes method caries scores, mean ± SEM; settings: for effect on bacterial colonization / reduction in caries scores: 4-week treatment, 100 μM; for CFU/mL BAP: Blood agar plate; for CFU/mL BAP / CFU/mL MS / Buccal Mean Caries Scores (±SEM) Dx / Sulcal Mean Caries Scores (± SEM) Dx / Buccal Mean Caries Scores (±SEM) Dm / Sulcal Mean Caries Scores (± SEM) Dm / Buccal Mean Caries Scores (±SEM) Ds / Proximal Mean Caries Scores (± SEM) Ds / Sulcal Mean Caries Scores (± SEM) Ds / Buccal Mean Caries Scores (±SEM) E / Proximal Mean Caries Scores (± SEM) E / Sulcal Mean Caries Scores (± SEM) E: 100 μM (NaF 250 ppm); for CFU/mL MS: Mitis-Salivarius agar; for Buccal Mean Caries Scores (±SEM) Dx / Sulcal Mean Caries Scores (± SEM) Dx: dentinal extensive; for Buccal Mean Caries Scores (±SEM) Dx / Sulcal Mean Caries Scores (± SEM) Dx / Buccal Mean Caries Scores (±SEM) Dm / Sulcal Mean Caries Scores (± SEM) Dm / Buccal Mean Caries Scores (±SEM) Ds / Proximal Mean Caries Scores (± SEM) Ds / Sulcal Mean Caries Scores (± SEM) Ds / Buccal Mean Caries Scores (±SEM) E / Proximal Mean Caries Scores (± SEM) E / Sulcal Mean Caries Scores (± SEM) E: twice daily, 4 weeks, n = 5; for Buccal Mean Caries Scores (±SEM) Dm / Sulcal Mean Caries Scores (± SEM) Dm: dentinal moderate; for Buccal Mean Caries Scores (±SEM) Ds / Proximal Mean Caries Scores (± SEM) Ds / Sulcal Mean Caries Scores (± SEM) Ds: dentinal slight; for Buccal Mean Caries Scores (±SEM) E / Proximal Mean Caries Scores (± SEM) E / Sulcal Mean Caries Scores (± SEM) E: enamel
Description: To understand how these compounds affect the residential bacterial community, we conducted an in vivo evaluation of both HA5 and HA6 and compared to the untreated and NaF-treated rats using a well-established gnotobiotic rat model of dental caries^[50-54]. Treatment groups used in this study were inhibitor HA5 (100 μM), inhibitor HA6 (100 μM), and vehicle. A UA159 infection only group served as a negative control and a NaF (250 ppm) served as a positive control.
All rats from the experimental groups and from the control groups were colonized with S. mutans UA159. […] The effect of the treatment on dentinal moderate (Dm) and dentinal extensive (Dx) scores in the proximal area were not recorded as there were no observable caries lesions in both control and the treated groups. The observed reductions in caries scores by HA5 or HA6 were slightly lower than the positive control NaF treatment. However, it should be noted that the concentration of NaF (250 ppm=5.95 mM) is about 59-fold higher than the inhibitor treatment dose of 100 μM.
as §1

SMILES: O=C1/C(=C/c2cc(O)c(O)c(O)c2)Oc2ccccc21 [HA6, 2-[(3′,4′,5′-Trihydroxyphenyl)methylidene]-2,3-dihydro-1-benzofuran-3-one]
- overall effect on rat oral microbiome [1]: without affecting the rat oral microbiome; also recorded: without perturbing the overall rat oral microbiome significantly; also recorded: do not perturb oral microbiome significantly
- oral microbiome composition, phylum level [1]: did not perturb the overall rat oral microbiome at phylum levels significantly
- oral microbiome composition, family level within Firmicutes [1]: did not perturb the overall rat oral microbiome significantly within this phylum
- beta diversity (Bray-Curtis, PERMANOVA) [1]: without any significant deviations
- Weight [2]: 165 ± 13 g
- weight loss [2]: did not experience significant weight loss
- effect on bacterial colonization [3]: did not affect bacterial colonization significantly
- reduction in caries scores [3]: significant reductions in buccal caries scores; also recorded: can significantly reduce the caries scores in vivo
- CFU/mL BAP [3]: 1.9 ± 0.5 CFU/mL (×10^5)
- CFU/mL MS [3]: 1.3 ± 0.4 CFU/mL (×10^5)
- Buccal Mean Caries Scores (±SEM) Dx [3]: 1.2 ± 0.5
- Sulcal Mean Caries Scores (± SEM) Dx [3]: 1.6 ± 0.4
- Buccal Mean Caries Scores (±SEM) Dm [3]: 4.0 ± 0.7
- Sulcal Mean Caries Scores (± SEM) Dm [3]: 6.4 ± 0.4
- Buccal Mean Caries Scores (±SEM) Ds [3]: 6.8 ± 0.5
- Proximal Mean Caries Scores (± SEM) Ds [3]: 0.0 ± 0.0
- Sulcal Mean Caries Scores (± SEM) Ds [3]: 11.2 ± 0.7
- Buccal Mean Caries Scores (±SEM) E [3]: 8.2 ± 0.7
- Proximal Mean Caries Scores (± SEM) E [3]: 1.2 ± 0.8
- Sulcal Mean Caries Scores (± SEM) E [3]: 14.6 ± 0.9

SMILES: [F-].[Na+] [NaF, reference compound]
- oral bacterial community after Sm+CPD (beta diversity) ([1]; NaF-treated group, PERMANOVA, P-value>0.001 (so in the source)): the community was shifted
- abundance of the Streptococcaceae family ([1]; second week, not sustained till the end of the study): increase in the abundance of the Streptococcaceae family
- Weight [2]: 145 ± 12 g
- CFU/mL BAP [3]: 2.8 ± 0.7 CFU/mL (×10^5)
- CFU/mL MS [3]: 1.6 ± 0.6 CFU/mL (×10^5)
- Buccal Mean Caries Scores (±SEM) Dx [3]: 0.4 ± 0.2
- Sulcal Mean Caries Scores (± SEM) Dx [3]: 1.6 ± 0.5
- Buccal Mean Caries Scores (±SEM) Dm [3]: 1.6 ± 0.5
- Sulcal Mean Caries Scores (± SEM) Dm [3]: 5.4 ± 0.4
- Buccal Mean Caries Scores (±SEM) Ds [3]: 3.2 ± 0.9
- Proximal Mean Caries Scores (± SEM) Ds [3]: 0.0 ± 0.0
- Sulcal Mean Caries Scores (± SEM) Ds [3]: 10.4 ± 0.5
- Buccal Mean Caries Scores (±SEM) E [3]: 6.2 ± 0.9
- Proximal Mean Caries Scores (± SEM) E [3]: 0.0 ± 0.0
- Sulcal Mean Caries Scores (± SEM) E [3]: 15.2 ± 0.7

SMILES: O=C1/C(=C/c2cc(O)c(O)cc2O)Oc2ccccc21 [HA5, 2-[(2′,4′,5′-Trihydroxyphenyl)methylidene]-2,3-dihydro-1-benzofuran-3-one]
- overall effect on rat oral microbiome [1]: without affecting the rat oral microbiome; also recorded: without perturbing the overall rat oral microbiome significantly; also recorded: do not perturb oral microbiome significantly
- oral microbiome composition, phylum level [1]: did not perturb the overall rat oral microbiome at phylum levels significantly
- oral microbiome composition, family level within Firmicutes [1]: did not perturb the overall rat oral microbiome significantly within this phylum
- beta diversity (Bray-Curtis, PERMANOVA) [1]: without any significant deviations
- Weight [2]: 156 ± 16 g
- weight loss [2]: did not experience significant weight loss
- effect on bacterial colonization [3]: did not affect bacterial colonization significantly
- reduction in caries scores [3]: significant reductions in buccal caries scores; also recorded: can significantly reduce the caries scores in vivo
- CFU/mL BAP [3]: 3.9 ± 1.4 CFU/mL (×10^5)
- CFU/mL MS [3]: 2.2 ± 0.8 CFU/mL (×10^5)
- Buccal Mean Caries Scores (±SEM) Dx [3]: 2.2 ± 0.7
- Sulcal Mean Caries Scores (± SEM) Dx [3]: 1.0 ± 0.3
- Buccal Mean Caries Scores (±SEM) Dm [3]: 3.6 ± 0.4
- Sulcal Mean Caries Scores (± SEM) Dm [3]: 4.6 ± 0.2
- Buccal Mean Caries Scores (±SEM) Ds [3]: 6.6 ± 0.5
- Proximal Mean Caries Scores (± SEM) Ds [3]: 0.0 ± 0.0
- Sulcal Mean Caries Scores (± SEM) Ds [3]: 11.2 ± 0.6
- Buccal Mean Caries Scores (±SEM) E [3]: 7.8 ± 0.4
- Proximal Mean Caries Scores (± SEM) E [3]: 1.0 ± 0.3
- Sulcal Mean Caries Scores (± SEM) E [3]: 16.4 ± 2.2
